Laboratory results published in article PMC9811530 (Experimental and Clinical Endocrinology & Diabetes, 2022).
Where two headings read alike, the source gives them in different places.

Assay type: in vivo, human
Conditions: for BI 187004 Plasma Cday15: 24 h after last dose; for BI 187004 Plasma Cday15 / fe0–24 / CL/F SS / fe0–24,SS / BI 187004 Plasma Cday2 / Cmax: gMean (%gCV); for BI 187004 Plasma Cday2: immediately after second dose; for CL renal / Vd/F / AUC / AUC(0-t) / half-life / Cmax / Tmax: human, oral; for CL renal: plasma and urine; for Vd/F / AUC / AUC(0-t) / half-life / Cmax / Tmax: plasma; for Tmax: t max, median (min–max)

N#Cc1ccc2c(c1)[C@H]1CCCN(C(=O)c3ccc4[nH]cnc4c3)[C@H]1C2 [BI 187004]
BI 187004 Plasma Cday15 (10 mg): 322 (37.4) nmol/L | fe0–24 (10 mg, Day 1): 5.72 (27.2) % | CL/F SS (10 mg, Day 14): 2.01 (28.2) L/h | fe0–24,SS (10 mg, Day 14): 10.3 (26.6) % | BI 187004 Plasma Cday2 (10 mg): 156 (56.1) nmol/L | BI 187004 Plasma Cday15 (20 mg): 520 (25.6) nmol/L | fe0–24 (20 mg, Day 1): 6.14 (20.8) % | CL/F SS (20 mg, Day 14): 2.53 (24.7) L/h | fe0–24,SS (20 mg, Day 14): 9.83 (24.1) % | BI 187004 Plasma Cday2 (20 mg): 291 (23.3) nmol/L | BI 187004 Plasma Cday15 (40 mg): 744 (25.8) nmol/L | fe0–24 (40 mg, Day 1): 3.82 (27.3) % | CL/F SS (40 mg, Day 14): 3.16 (21.1) L/h | fe0–24,SS (40 mg, Day 14): 6.31 (26.7) % | BI 187004 Plasma Cday2 (40 mg): 511 (23.9) nmol/L | BI 187004 Plasma Cday15 (80 mg): 1,360 (24.8) nmol/L | fe0–24 (80 mg, Day 1): 4.15 (39.3) % | CL/F SS (80 mg, Day 14): 3.97 (26.4) L/h | fe0–24,SS (80 mg, Day 14): 6.05 (27.0) % | BI 187004 Plasma Cday2 (80 mg): 1,020 (30.0) nmol/L | BI 187004 Plasma Cday15 (160 mg): 2,430 (54.7) nmol/L | fe0–24 (160 mg, Day 1): 5.12 (11.6) % | CL/F SS (160 mg, Day 14): 3.69 (37.9) L/h | fe0–24,SS (160 mg, Day 14): 6.82 (21.6) % | BI 187004 Plasma Cday2 (160 mg): 1,660 (57.7) nmol/L | BI 187004 Plasma Cday15 (240 mg): 2,280 (76.0) nmol/L | fe0–24 (240 mg, Day 1): 4.87 (24.4) % | fe0–24,SS (240 mg, Day 14): 5.83 (22.7) % | BI 187004 Plasma Cday2 (240 mg): 2,420 (50.6) nmol/L | BI 187004 Plasma Cday15 (360 mg): 2,780 (19.6) nmol/L | fe0–24 (360 mg, Day 1): 5.11 (22.4) % | CL/F SS (360 mg, Day 14): 6.47 (12.3) L/h | fe0–24,SS (360 mg, Day 14): 6.46 (8.01) % | BI 187004 Plasma Cday2 (360 mg): 2,660 (36.5) nmol/L | dose proportionality of Cmax and AUCτ,ss (10 to 360 mg): increased non-proportionally | time of absorption (10–360 mg): ≤ 2 h | gMean oral clearance (CL/F,ss), range over dose groups (10–360 mg, day 14): 2.01 to 6.47 L/h | accumulation in plasma (between days 1 and 14): limited | CL renal (10 mg): 3.72 mL/min | CL renal (20 mg): 4.3 mL/min | CL renal (40 mg): 2.68 mL/min | CL renal (80 mg): 3.47 mL/min | CL renal (160 mg): 3.78 mL/min | CL renal (240 mg): 4.38 mL/min | CL renal (360 mg): 6.4 mL/min | Vd/F: 195 to 1160 L | AUC (10 mg): 14.5 µM·h | AUC(0-t) (10 mg): 7.5 µM·h | Vd/F (10 mg): 308 L | half-life (10 mg): 106 h | Cmax (10 mg, C max, 10 mg, Day 1): 681 nM | Cmax (10 mg, C max,SS, 10 mg, Day 14): 1240 nM | Tmax (10 mg, 10 mg, Day 1): 2 h | Tmax (10 mg, SS, 10 mg, Day 14): 0.834 h | AUC (20 mg): 23 µM·h | AUC(0-t) (20 mg): 13.9 µM·h | Vd/F (20 mg): 253 L | half-life (20 mg): 69.2 h | Cmax (20 mg, C max, 20 mg, Day 1): 1370 nM | Cmax (20 mg, C max,SS, 20 mg, Day 14): 1940 nM | Tmax (20 mg, 20 mg, Day 1): 0.834 h | Tmax (20 mg, SS, 20 mg, Day 14): 0.834 h | AUC (40 mg): 26.9 µM·h | AUC(0-t) (40 mg): 27.7 µM·h | Vd/F (40 mg): 195 L | half-life (40 mg): 42.8 h | Cmax (40 mg, C max, 40 mg, Day 1): 2920 nM | Cmax (40 mg, C max,SS, 40 mg, Day 14): 3400 nM | Tmax (40 mg, 40 mg, Day 1): 1 h
